Data on 22 molecules can be found in patent publication US9624182B2, “Compounds as lysophosphatidic acid receptor antagonists” (Amira Pharmaceuticals, Inc., priority 2009, dated 2017).

This assay deals with T1, human LPA1 (Homo sapiens, UniProt Q92633).
T1 construct: the full-length cDNA for human LPA1 was obtained by PCR of the reverse transcription reaction; expressed in transfected cells
The assay is described as follows: LPA1 calcium flux assay. The assay is classed as cell-based. Conditions: CHO cells expressing human LPA1, stimulated with 10 nM LPA; read-out: HLPA1 Ca Flux IC50. In outline: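 CHO cells stably expressing cloned human LPA1, serum-starved overnight, loaded with Calcium 4 dye 1 h at 37 °C in HBSS/20 mM Hepes with 0.3% fatty-acid-free HSA. Compounds preincubated 30 min at room temperature, then cells stimulated with 10 nM LPA; intracellular Ca2+ read by fluorescence. IC50 from titration curves.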

T1 sequence (Q92633 whole entry): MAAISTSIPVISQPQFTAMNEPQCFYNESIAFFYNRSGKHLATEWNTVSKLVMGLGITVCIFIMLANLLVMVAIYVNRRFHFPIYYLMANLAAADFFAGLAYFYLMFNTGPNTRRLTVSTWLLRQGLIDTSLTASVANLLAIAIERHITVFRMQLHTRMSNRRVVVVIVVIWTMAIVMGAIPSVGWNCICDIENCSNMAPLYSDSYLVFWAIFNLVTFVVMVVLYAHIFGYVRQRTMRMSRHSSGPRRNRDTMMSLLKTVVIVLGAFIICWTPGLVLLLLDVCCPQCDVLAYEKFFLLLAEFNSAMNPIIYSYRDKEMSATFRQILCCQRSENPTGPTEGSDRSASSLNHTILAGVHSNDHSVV

As to `Cc1noc(-c2ccc(-c3ccc(CC4(C(=O)O)CC4)cc3)cc2)c1C(O)CCCc1ccccc1` (stereo not shown) [Compound 1-250, 1-{4′-[4-(1-Hydroxy-4-phenyl-butyl)-3-methyl-isoxazol-5-yl]-biphenyl-4-ylmethyl}-cyclopropanecarboxylic acid], the half-maximal inhibitory concentration (IC50) was less than 300 nM.
`Cc1noc(-c2ccc(-c3cccc(CC4(C(=O)O)CC4)c3)cc2)c1C(O)CCCc1ccccc1` (stereo not shown) [Compound 1-251, 1-{4′-[4-(1-Hydroxy-4-phenyl-butyl)-3-methyl-isoxazol-5-yl]-biphenyl-3-ylmethyl}-cyclopropanecarboxylic acid]: the half-maximal inhibitory concentration (IC50) was 300 to 1000 nM.
For the molecule `Cc1noc(-c2ccc(-c3ccc(C4(C(=O)O)CC4)cc3)cc2)c1C(O)C(=O)NCc1ccccc1` (stereo not shown) [Compound 1-252, 1-{4′-[4-(Benzylcarbamoyl-hydroxy-methyl)-3-methyl-isoxazol-5-yl]-biphenyl-4-yl}-cyclopropanecarboxylic acid], the half-inhibitory concentration (IC50) is less than 300 nM.
As for `Cc1noc(-c2ccc(-c3ccc(C4(C(=O)O)CC4)cc3)cc2)c1C(O)C(=O)N[C@H](C)c1ccccc1` (stereo partly drawn) [Compound 1-253, 1-(4′-{4-[Hydroxy-((R)-1-phenyl-ethylcarbamoyl)-methyl]-3-methyl-isoxazol-5-yl}-biphenyl-4-yl)-cyclopropanecarboxylic acid], the figure is less than 300 nM; as for `CC(=O)NC(CCCc1ccccc1)c1c(C)noc1-c1ccc(-c2ccc(C3(CC(=O)O)CC3)cc2)cc1` (stereo not shown) [Compound 1-256, (1-{4′-[4-(1-Acetylamino-4-phenyl-butyl)-3-methyl-isoxazol-5-yl]-biphenyl-4-yl}-cyclopropyl)-acetic acid], 1000 to 50000 nM; as for `Cc1noc(-c2ccc(-c3ccc(C4(C(=O)O)CC4)cc3)cc2)c1C(CCCc1ccccc1)NS(C)(=O)=O` (stereo not shown) [Compound 1-257, 1-{4′-[4-(1-Methanesulfonylamino-4-phenyl-butyl)-3-methyl-isoxazol-5-yl]-biphenyl-4-yl}-cyclopropanecarboxylic acid], 1000 to 50000 nM.
The figure for `Cc1noc(-c2ccc(-c3ccc(C4(C(=O)O)CC4)cc3)cc2)c1C(O)C(=O)N(C)Cc1ccccc1` (stereo not shown) [Compound 1-258, 1-(4′-{4-[(Benzyl-methyl-carbamoyl)-hydroxy-methyl]-3-methyl-isoxazol-5-yl}-biphenyl-4-yl)-cyclopropanecarboxylic acid] is less than 300 nM.
Take `Cc1noc(-c2ccc(-c3ccc(C4(C(=O)O)CC4)cc3)cc2)c1/C=C/S(=O)(=O)Cc1ccccc1` [Compound 1-259, 1-{4′-[3-Methyl-4-((E)-2-phenylmethanesulfonyl-vinyl)-isoxazol-5-yl]-biphenyl-4-yl}-cyclopropanecarboxylic acid]: the IC50 was in the range of 1000 to 50000 nM.
Take `Cc1noc(-c2ccc(-c3ccc(C4(C(=O)O)CC4)cc3)cc2)c1C(O)CCCc1cccnc1` (stereo not shown) [Compound 1-260, 1-{4′-[4-(1-Hydroxy-4-pyridin-3-yl-butyl)-3-methyl-isoxazol-5-yl]-biphenyl-4-yl}-cyclopropanecarboxylic acid]: the IC50 is less than 300 nM.
As for `Cc1noc(-c2ccc(-c3ccc(C4(C(=O)O)CC4)cc3)cc2)c1C(O)CCCc1ccncc1` (stereo not shown) [Compound 1-261, 1-{4′-[4-(1-Hydroxy-4-pyridin-4-yl-butyl)-3-methyl-isoxazol-5-yl]-biphenyl-4-yl}-cyclopropanecarboxylic acid], the IC50 is less than 300 nM.
`Cc1noc(-c2ccc(-c3ccc(CC(=O)O)cc3)cc2)c1C(O)CSCc1cccc(C(F)(F)F)c1` (stereo not shown) [Compound 1-266, (4′-{4-[1-Hydroxy-2-(3-trifluoromethyl-benzylsulfanyl)-ethyl]-3-methyl-isoxazol-5-yl}-biphenyl-4-yl)-acetic acid]: the concentration for half-maximal inhibition (IC50) was less than 300 nM.
With `Cc1noc(-c2ccc(-c3ccc(C4(C(=O)O)CC4)cc3)cc2)c1N(C)C(C)CCc1ccccc1` (stereo not shown) [Compound 1-267, 1-(4′-{3-Methyl-4-[methyl-(1-methyl-3-phenyl-propyl)-amino]-isoxazol-5-yl}-biphenyl-4-yl)-cyclopropanecarboxylic acid], the IC50 was less than 300 nM.
As for `Cc1noc(-c2ccc(-c3ccc(C4(C(=O)O)CC4)cc3)cc2)c1NC1CCc2ccccc2C1` (stereo not shown) [Compound 1-270, 1-{4′-[3-Methyl-4-(1,2,3,4-tetrahydro-naphthalen-2-ylamino)-isoxazol-5-yl]-biphenyl-4-yl}-cyclopropanecarboxylic acid], the figure is less than 300 nM; as for `Cc1noc(-c2ccc(-c3ccc(C4(C(=O)O)CC4)cc3)cc2)c1NC1Cc2ccccc2C1` [Compound 1-271, 1-{4′-[4-(Indan-2-ylamino)-3-methyl-isoxazol-5-yl]-biphenyl-4-yl}-cyclopropanecarboxylic acid], 300 to 1000 nM.
As for `Cc1noc(-c2ccc(-c3ccc(CC(=O)O)cc3)cc2)c1[C@H](O)CSCc1ccccc1` [Compound 1-272, {4′-[4-((S)-2-Benzylsulfanyl-1-hydroxy-ethyl)-3-methyl-isoxazol-5-yl]-biphenyl-4-yl}-acetic acid], the figure is less than 300 nM; as for `Cc1noc(-c2ccc(-c3ccc(CCC(=O)O)cc3)cc2)c1[C@H](O)CSCc1ccccc1` [Compound 1-273, 3-{4′-[4-((S)-2-Benzylsulfanyl-1-hydroxy-ethyl)-3-methyl-isoxazol-5-yl]-biphenyl-4-yl}-propionic acid], less than 300 nM; as for `Cc1noc(-c2ccc(-c3ccc(CCC(=O)O)cc3)cc2)c1[C@H](O)CSCc1cccc(C(F)(F)F)c1` [Compound 1-274, 3-(4′-{4-[(S)-1-Hydroxy-2-(3-trifluoromethyl-benzylsulfanyl)-ethyl]-3-methyl-isoxazol-5-yl}-biphenyl-4-yl)-propionic acid], less than 300 nM.
`Cc1noc(-c2ccc(-c3ccc(C4(C(=O)O)CC4)cc3)cc2)c1C(O)CSC(C)(C)C` (stereo not shown) [Compound 1-275, 1-{4′-[4-(2-tert-Butylsulfanyl-1-hydroxy-ethyl)-3-methyl-isoxazol-5-yl]-biphenyl-4-yl}-cyclopropanecarboxylic acid]: the IC50 was less than 300 nM.
In the case of `Cc1noc(-c2ccc(-c3ccc(C4(C(=O)O)CC4)cc3)cc2)c1C(O)CSCC(F)(F)F` (stereo not shown) [Compound 1-276, 1-(4′-{4-[1-Hydroxy-2-(2,2,2-trifluoro-ethylsulfanyl)-ethyl]-3-methyl-isoxazol-5-yl}-biphenyl-4-yl)-cyclopropanecarboxylic acid], the IC50 was less than 300 nM.
For the molecule `Cc1noc(-c2ccc(-c3ccc(C4(C(=O)O)CC4)cc3)cc2)c1C(O)CSc1ccccc1` (stereo not shown) [Compound 1-277, 1-{4′-[4-(1-Hydroxy-2-phenylsulfanyl-ethyl)-3-methyl-isoxazol-5-yl]-biphenyl-4-yl}-cyclopropanecarboxylic acid], the 50% inhibitory concentration (IC50) was less than 300 nM.
The figure for `Cc1noc(-c2ccc(-c3ccc(C4(C(=O)O)CC4)cc3)cc2)c1NC(C)CSc1ccccc1` (stereo not shown) [Compound 1-278, 1-{4′-[3-Methyl-4-(1-methyl-2-phenylsulfanyl-ethylamino)-isoxazol-5-yl]-biphenyl-4-yl}-cyclopropanecarboxylic acid] is less than 300 nM; for `Cc1noc(-c2ccc(-c3ccc(C4(C(=O)O)CC4)cc3)cc2)c1NC(C)COc1ccccc1` (stereo not shown) [Compound 1-279, 1-{4′-[3-Methyl-4-(1-methyl-2-phenoxy-ethylamino)-isoxazol-5-yl]-biphenyl-4-yl}-cyclopropanecarboxylic acid] it is less than 300 nM.

Broadly, the IC50 is the midpoint of a concentration-inhibition curve.
